Consider 24 molecules from patent US9260439B2, “Dihydropyrrolopyrimidine derivatives” (PFIZER INC., priority 2014, dated 2016).

In this experiment the target is truncated PI3Kα (p110α/iSH2 p85α) (Homo sapiens (Human), UniProt P42336). In words: PI3KA_Act fluorescence polarization kinase assay (Ki). The format is biochemical. The settings on record: 1 mM ATP. An outline of the steps:
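p110α/iSH2 p85α (0.5 nM) was reacted with 30 μM sonicated PIP2 in 50 mM HEPES pH 7.4, 150 mM NaCl, 5 mM MgCl2, 1 mM DTT and 0.05% CHAPS for 30 min at room temperature, then stopped with EDTA. PIP3 was detected by fluorescence polarization (GST-Grp1 PH domain/TAMRA-PIP3), and Ki came from a Morrison tight-binding fit.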

Chain of truncated PI3Kα (p110α/iSH2 p85α) (P42336 whole entry, the tested form may be a part): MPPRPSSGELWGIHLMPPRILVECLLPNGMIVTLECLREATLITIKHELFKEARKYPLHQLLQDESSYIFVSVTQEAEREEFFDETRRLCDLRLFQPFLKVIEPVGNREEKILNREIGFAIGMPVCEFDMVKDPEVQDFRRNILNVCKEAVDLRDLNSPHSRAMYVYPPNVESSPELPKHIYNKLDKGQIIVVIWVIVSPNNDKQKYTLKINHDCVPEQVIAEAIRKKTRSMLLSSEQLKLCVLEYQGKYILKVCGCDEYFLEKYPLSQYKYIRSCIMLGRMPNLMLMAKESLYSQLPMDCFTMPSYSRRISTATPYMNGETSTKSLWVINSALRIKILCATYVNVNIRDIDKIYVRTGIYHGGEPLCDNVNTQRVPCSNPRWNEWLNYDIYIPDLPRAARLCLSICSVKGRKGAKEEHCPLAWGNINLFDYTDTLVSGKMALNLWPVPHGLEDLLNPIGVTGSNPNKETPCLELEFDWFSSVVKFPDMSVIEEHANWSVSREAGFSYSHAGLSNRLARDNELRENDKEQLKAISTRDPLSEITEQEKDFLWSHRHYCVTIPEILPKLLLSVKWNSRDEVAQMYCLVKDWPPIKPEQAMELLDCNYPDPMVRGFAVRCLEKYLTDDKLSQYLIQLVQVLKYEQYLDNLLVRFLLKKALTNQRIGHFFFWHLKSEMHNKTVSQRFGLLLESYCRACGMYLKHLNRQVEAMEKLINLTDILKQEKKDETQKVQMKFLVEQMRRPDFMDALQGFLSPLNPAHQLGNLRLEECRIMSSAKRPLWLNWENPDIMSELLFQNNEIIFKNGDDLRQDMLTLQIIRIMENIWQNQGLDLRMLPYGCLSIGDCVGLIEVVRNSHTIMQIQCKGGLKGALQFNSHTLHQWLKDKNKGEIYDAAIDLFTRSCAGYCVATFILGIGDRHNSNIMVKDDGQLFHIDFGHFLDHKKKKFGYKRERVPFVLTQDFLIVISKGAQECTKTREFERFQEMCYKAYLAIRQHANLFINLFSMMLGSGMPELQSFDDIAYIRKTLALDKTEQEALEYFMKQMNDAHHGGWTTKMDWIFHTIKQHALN

On to `C[C@H]1COCCN1c1nc(-c2cnc(N)nc2)c2c(n1)N(C1(C)CN(C(=O)C(C)(C)N)C1)CC2.Cl` [Example 456, 2-amino-1-(3-{4-(2-aminopyrimidin-5-yl)-2-[(3S)-3-methylmorpholin-4-yl]-5,6-dihydro-7H-pyrrolo[2,3-d]pyrimidin-7-yl}-3-methylazetidin-1-yl)-2-methylpropan-1-one hydrochloride], for which the “PI3KA_Act Ki” value worked out at 0.063 nM.

As to `CCC(=O)NCC(=O)N1CC(N2CCc3c(-c4cnc(N)nc4)nc(N4CCOC[C@@H]4C)nc32)C1` [Example 457, N-[2-(3-{4-(2-aminopyrimidin-5-yl)-2-[(3S)-3-methylmorpholin-4-yl]-5,6-dihydro-7H-pyrrolo[2,3-d]pyrimidin-7-yl}azetidin-1-yl)-2-oxoethyl]propanamide], the “PI3KA_Act Ki” value is 0.691 nM. The same measure for `C[C@H]1COCCN1c1nc(-c2cnc(N)nc2)c2c(n1)N(C1CN(C(=O)C3(C)CC3)C1)CC2` [Example 458, (3-{4-(2-aminopyrimidin-5-yl)-2-[(3S)-3-methylmorpholin-4-yl]-5,6-dihydro-7H-pyrrolo[2,3-d]pyrimidin-7-yl}azetidin-1-yl)(1-methylcyclopropyl)methanone]: 0.159 nM; for `C[C@H]1COCCN1c1nc(-c2cnc(N)nc2)c2c(n1)N(C1(C)CN(C(=O)C3(C)CC3)C1)CC2` [Example 459, (3-{4-(2-aminopyrimidin-5-yl)-2-[(3S)-3-methylmorpholin-4-yl]-5,6-dihydro-7H-pyrrolo[2,3-d]pyrimidin-7-yl}-3-methylazetidin-1-yl)(1-methylcyclopropyl)methanone]: 0.057 nM; for `COC(=O)N1CC(C)(N2CCc3c(-c4cnc(N)nc4)nc(N4CCOC[C@@H]4C)nc32)C1` [Example 460, methyl 3-{4-(2-aminopyrimidin-5-yl)-2-[(3S)-3-methylmorpholin-4-yl]-5,6-dihydro-7H-pyrrolo[2,3-d]pyrimidin-7-yl}-3-methylazetidine-1-carboxylate]: 0.047 nM. The same measure for `C[C@H]1COCCN1c1nc(-c2cnc(N)nc2)c2c(n1)N(C1(C)CN(C(=O)OC(C)(C)C)C1)CC2` [Example 461, tert-butyl 3-{4-(2-aminopyrimidin-5-yl)-2-[(3S)-3-methylmorpholin-4-yl]-5,6-dihydro-7H-pyrrolo[2,3-d]pyrimidin-7-yl}-3-methylazetidine-1-carboxylate]: 0.040 nM. With `CNC(=O)N1CC(C)(N2CCc3c(-c4cnc(N)nc4)nc(N4CCOC[C@@H]4C)nc32)C1` [Example 462, 3-{4-(2-aminopyrimidin-5-yl)-2-[(3S)-3-methylmorpholin-4-yl]-5,6-dihydro-7H-pyrrolo[2,3-d]pyrimidin-7-yl}-N,3-dimethylazetidine-1-carboxamide] the figure was 0.057 nM; with `C[C@H]1COCCN1c1nc(-c2cnc(N)nc2)c2c(n1)N(C1CN(S(=O)(=O)C3CCC3)C1)CC2` [Example 463, 5-{7-[1-(cyclobutylsulfonyl)azetidin-3-yl]-2-[(3S)-3-methylmorpholin-4-yl]-6,7-dihydro-5H-pyrrolo[2,3-d]pyrimidin-4-yl}pyrimidin-2-amine], 0.169 nM.

Regarding `C[C@H]1COCCN1c1nc(-c2cnc(N)nc2)c2c(n1)N(C1CN(S(=O)(=O)N3CCC3)C1)CC2` [Example 464, 5-{7-[1-(azetidin-1-ylsulfonyl)azetidin-3-yl]-2-[(3S)-3-methylmorpholin-4-yl]-6,7-dihydro-5H-pyrrolo[2,3-d]pyrimidin-4-yl}pyrimidin-2-amine], the “PI3KA_Act Ki” value worked out at 0.193 nM. In the case of `C[C@H]1COCCN1c1nc(-c2cnc(N)nc2)c2c(n1)N([C@@]1(C)CCNC1)CC2.Cl` [Example 465, 5-{2-[(3S)-3-methylmorpholin-4-yl]-7-[(3S)-3-methylpyrrolidin-3-yl]-6,7-dihydro-5H-pyrrolo[2,3-d]pyrimidin-4-yl}pyrimidin-2-amine hydrochloride], the “PI3KA_Act Ki” value amounted to 0.160 nM. With `C[C@H]1COCCN1c1nc(-c2cnc(N)nc2)c2c(n1)N([C@]1(C)CCNC1)CC2.Cl` [Example 466, 5-{2-[(3S)-3-methylmorpholin-4-yl]-7-[(3R)-3-methylpyrrolidin-3-yl]-6,7-dihydro-5H-pyrrolo[2,3-d]pyrimidin-4-yl}pyrimidin-2-amine hydrochloride] the figure was 0.303 nM; with `C[C@@H]1CNC[C@@]1(C)N1CCc2c(-c3cnc(N)nc3)nc(N3CCOC[C@@H]3C)nc21.Cl` [Example 467, 5-{7-[(3S,4R)-3,4-dimethylpyrrolidin-3-yl]-2-[(3S)-3-methylmorpholin-4-yl]-6,7-dihydro-5H-pyrrolo[2,3-d]pyrimidin-4-yl}pyrimidin-2-amine hydrochloride], 0.106 nM; with `C[C@H]1COCCN1c1nc(-c2cnc(N)nc2)c2c(n1)N([C@@]1(C)CNC[C@@H]1C)CC2.Cl` [Example 468, 5-{7-[(3R,4S)-3,4-dimethylpyrrolidin-3-yl]-2-[(3S)-3-methylmorpholin-4-yl]-6,7-dihydro-5H-pyrrolo[2,3-d]pyrimidin-4-yl}pyrimidin-2-amine hydrochloride], 0.634 nM. With `CC(=O)N1CC[C@](C)(N2CCc3c(-c4cnc(N)nc4)nc(N4CCOC[C@@H]4C)nc32)C1` [Example 469, 1-[(3S)-3-{4-(2-aminopyrimidin-5-yl)-2-[(3S)-3-methylmorpholin-4-yl]-5,6-dihydro-7H-pyrrolo[2,3-d]pyrimidin-7-yl}-3-methylpyrrolidin-1-yl]ethanone] the figure was 0.052 nM; with `CC(=O)N1CC[C@@](C)(N2CCc3c(-c4cnc(N)nc4)nc(N4CCOC[C@@H]4C)nc32)C1` [Example 470, 1-[(3R)-3-{4-(2-aminopyrimidin-5-yl)-2-[(3S)-3-methylmorpholin-4-yl]-5,6-dihydro-7H-pyrrolo[2,3-d]pyrimidin-7-yl}-3-methylpyrrolidin-1-yl]ethanone], 0.070 nM. With `C[C@@H](O)C(=O)N1CC[C@](C)(N2CCc3c(-c4cnc(N)nc4)nc(N4CCOC[C@@H]4C)nc32)C1` [Example 471, (2R)-1-[(3S)-3-{4-(2-aminopyrimidin-5-yl)-2-[(3S)-3-methylmorpholin-4-yl]-5,6-dihydro-7H-pyrrolo[2,3-d]pyrimidin-7-yl}-3-methylpyrrolidin-1-yl]-2-hydroxypropan-1-one], the “PI3KA_Act Ki” value came out at 0.037 nM. As to `CC(C)[C@@H](O)C(=O)N1CC[C@](C)(N2CCc3c(-c4cnc(N)nc4)nc(N4CCOC[C@@H]4C)nc32)C1` [Example 472, (2R)-1-[(3S)-3-{4-(2-aminopyrimidin-5-yl)-2-[(3S)-3-methylmorpholin-4-yl]-5,6-dihydro-7H-pyrrolo[2,3-d]pyrimidin-7-yl}-3-methylpyrrolidin-1-yl]-2-hydroxy-3-methylbutan-1-one], the “PI3KA_Act Ki” value came to 0.044 nM. `C[C@H]1COCCN1c1nc(-c2cnc(N)nc2)c2c(n1)N([C@@]1(C)CCN(C(=O)C(C)(C)O)C1)CC2` [Example 473, 1-[(3S)-3-{4-(2-aminopyrimidin-5-yl)-2-[(3S)-3-methylmorpholin-4-yl]-5,6-dihydro-7H-pyrrolo[2,3-d]pyrimidin-7-yl}-3-methylpyrrolidin-1-yl]-2-hydroxy-2-methylpropan-1-one]: the “PI3KA_Act Ki” value came out at 0.076 nM. In the case of `C[C@H]1COCCN1c1nc(-c2cnc(N)nc2)c2c(n1)N([C@@]1(C)CCN(C(=O)C(C)(C)CO)C1)CC2.Cl` [Example 474, 1-[(3S)-3-{4-(2-aminopyrimidin-5-yl)-2-[(3S)-3-methylmorpholin-4-yl]-5,6-dihydro-7H-pyrrolo[2,3-d]pyrimidin-7-yl}-3-methylpyrrolidin-1-yl]-3-hydroxy-2,2-dimethylpropan-1-one hydrochloride], the “PI3KA_Act Ki” value was 0.045 nM. Regarding `C[C@H](N)C(=O)N1CC[C@](C)(N2CCc3c(-c4cnc(N)nc4)nc(N4CCOC[C@@H]4C)nc32)C1.Cl` [Example 475, (2S)-2-amino-1-[(3S)-3-{4-(2-aminopyrimidin-5-yl)-2-[(3S)-3-methylmorpholin-4-yl]-5,6-dihydro-7H-pyrrolo[2,3-d]pyrimidin-7-yl}-3-methylpyrrolidin-1-yl]propan-1-one hydrochloride], the “PI3KA_Act Ki” value was 0.068 nM. For the molecule `C[C@@H](N)C(=O)N1CC[C@](C)(N2CCc3c(-c4cnc(N)nc4)nc(N4CCOC[C@@H]4C)nc32)C1.Cl` [Example 476, (2R)-2-amino-1-[(3S)-3-{4-(2-aminopyrimidin-5-yl)-2-[(3S)-3-methylmorpholin-4-yl]-5,6-dihydro-7H-pyrrolo[2,3-d]pyrimidin-7-yl}-3-methylpyrrolidin-1-yl]propan-1-one hydrochloride], the “PI3KA_Act Ki” value is below 0.018 nM. In the case of `CC[C@H](N)C(=O)N1CC[C@](C)(N2CCc3c(-c4cnc(N)nc4)nc(N4CCOC[C@@H]4C)nc32)C1.Cl` [Example 477, (2S)-2-amino-1-[(3S)-3-{4-(2-aminopyrimidin-5-yl)-2-[(3S)-3-methylmorpholin-4-yl]-5,6-dihydro-7H-pyrrolo[2,3-d]pyrimidin-7-yl}-3-methylpyrrolidin-1-yl]butan-1-one hydrochloride], the “PI3KA_Act Ki” value turned out to be 0.038 nM. In the case of `CC[C@@H](N)C(=O)N1CC[C@](C)(N2CCc3c(-c4cnc(N)nc4)nc(N4CCOC[C@@H]4C)nc32)C1.Cl` [Example 478, (2R)-2-amino-1-[(3S)-3-{4-(2-aminopyrimidin-5-yl)-2-[(3S)-3-methylmorpholin-4-yl]-5,6-dihydro-7H-pyrrolo[2,3-d]pyrimidin-7-yl}-3-methylpyrrolidin-1-yl]butan-1-one hydrochloride], the “PI3KA_Act Ki” value is recorded as 0.026 nM. The same measure for `C[C@H]1COCCN1c1nc(-c2cnc(N)nc2)c2c(n1)N([C@@]1(C)CCN(C(=O)[C@@H](N)CF)C1)CC2.Cl` [Example 479, (2R)-2-amino-1-[(3S)-3-{4-(2-aminopyrimidin-5-yl)-2-[(3S)-3-methylmorpholin-4-yl]-5,6-dihydro-7H-pyrrolo[2,3-d]pyrimidin-7-yl}-3-methylpyrrolidin-1-yl]-3-fluoropropan-1-one hydrochloride]: 0.026 nM.
